16 compounds from paper PMC5565203 (Journal of medicinal chemistry, 2015) can be followed below.

“Also recorded” adds a separate entry of the source. Some results are limits rather than exact numbers.

In one assay the target is human Mcl-1 (Homo sapiens, UniProt Q07820). In words: FPA competition assay, displacement of FITC-Bak-BH3 peptide from Mcl-1. It is filed as binding. As to conditions: for LE (ligand efficiency): binding to Mcl-1; for higher Mcl-1 Ki values compared to the corresponding four-atom linker analogs: three-atom linker compounds; for increased affinity for Mcl-1 compared to the initial fragment 2: four-atom linker compounds; for improvement in Mcl-1 affinity compared to the core fragment 3: compared to fragment 3.
Sequence of human Mcl-1 (Q07820 172-327): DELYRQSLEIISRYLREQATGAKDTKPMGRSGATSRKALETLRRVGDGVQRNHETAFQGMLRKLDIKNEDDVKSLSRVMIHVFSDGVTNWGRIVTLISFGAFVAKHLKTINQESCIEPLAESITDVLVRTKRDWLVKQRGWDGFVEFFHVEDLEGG

For a further assay, the target named is cellular Mcl-1 (Homo sapiens, UniProt Q07820). In words: Biotin streptavidin pull-down experiment in K562 cell lysates. It is filed as binding. As to conditions: Western blot.
Sequence of cellular Mcl-1 (Q07820 whole entry): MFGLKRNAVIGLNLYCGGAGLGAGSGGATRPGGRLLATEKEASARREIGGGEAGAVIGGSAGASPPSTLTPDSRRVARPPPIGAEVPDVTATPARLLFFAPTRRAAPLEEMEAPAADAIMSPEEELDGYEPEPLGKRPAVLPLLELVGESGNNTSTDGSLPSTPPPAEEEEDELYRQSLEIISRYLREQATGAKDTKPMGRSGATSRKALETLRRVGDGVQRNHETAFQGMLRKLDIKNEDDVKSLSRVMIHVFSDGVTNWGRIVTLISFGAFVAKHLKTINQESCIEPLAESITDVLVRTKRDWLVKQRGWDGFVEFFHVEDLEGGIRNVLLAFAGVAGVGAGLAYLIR

As to `CC1Cn2c(C(=O)O)cc3cccc(c32)S1` (stereo not shown) [Compound 2], the “LE (ligand efficiency)” value at human Mcl-1 was found to be 0.38.

For `O=C(O)c1cc2cccc3c2n1CCS3` [Compound 3], the “LE (ligand efficiency)” value on human Mcl-1 is reported as 0.39. As to `O=C(O)c1cc2cccc3c2n1CCC3` [Compound 4], at human Mcl-1, the “LE (ligand efficiency)” value was 0.35. In the case of `Cc1c(C(=O)O)n2c3c(cccc13)SCC2` [Compound 5, 6-Methyl-2,3-dihydro-[1,4]thiazino[2,3,4-hi]indole-5-carboxylic acid], the “LE (ligand efficiency)” value at human Mcl-1 is recorded as 0.41. As to `Cc1c(C(=O)O)n2c3c(cccc13)CCC2` [Compound 6, 1-Methyl-5,6-dihydro-4H-pyrrolo[3,2,1-ij]quinoline-2-carboxylic acid], on human Mcl-1, the “LE (ligand efficiency)” value was 0.35. In the case of `Cc1c(C(=O)O)n2c3c(cccc13)OCC2` [Compound 7, 6-Methyl-2,3-dihydro-[1,4]oxazino[2,3,4-hi]indole-5-carboxylic acid], at human Mcl-1, the “LE (ligand efficiency)” value is given as 0.41. Take `O=C(O)c1c(CCOc2cccc3ccccc23)c2cccc3c2n1CCS3` [Compound 16, 6-(2-(Naphthalen-1-yloxy)ethyl)-2,3-dihydro-[1,4]thiazino[2,3,4-hi]indole-5-carboxylic acid]: the “higher Mcl-1 Ki values compared to the corresponding four-atom linker analogs” value on human Mcl-1 is above 10 fold.

Take `O=C(O)c1c(CCOc2cccc3ccccc23)c2cccc3c2n1CCC3` [Compound 17, 1-(2-(Naphthalen-1-yloxy)ethyl)-5,6-dihydro-4H-pyrrolo[3,2,1-ij]quinoline-2-carboxylic acid]: the “higher Mcl-1 Ki values compared to the corresponding four-atom linker analogs” value on human Mcl-1 was above 10 fold.

`O=C(O)c1c(CCOc2cccc3ccccc23)c2cccc3c2n1CCO3` [Compound 18, 6-(2-(Naphthalen-1-yloxy)ethyl)-2,3-dihydro-[1,4]oxazino[2,3,4-hi]indole-5-carboxylic acid]: at human Mcl-1, the “higher Mcl-1 Ki values compared to the corresponding four-atom linker analogs” value is on record as above 10 fold.

`O=C(O)c1c(CCCOc2cccc3ccccc23)c2cccc3c2n1CCS3` [Compound 19, 6-(3-(Naphthalen-1-yloxy)propyl)-2,3-dihydro-[1,4]thiazino[2,3,4-hi]indole-5-carboxylic acid]: the “increased affinity for Mcl-1 compared to the initial fragment 2” value at human Mcl-1 is “more than 2 orders of magnitude”. As for `O=C(O)c1c(CCCOc2cccc3ccccc23)c2cccc3c2n1CCC3` [Compound 20, 1-(3-(Naphthalen-1-yloxy)propyl)-5,6-dihydro-4H-pyrrolo[3,2,1-ij]quinoline-2-carboxylic acid], the “increased affinity for Mcl-1 compared to the initial fragment 2” value on human Mcl-1 is reported as “more than 2 orders of magnitude”. Still for that read-out and setting: in the case of `O=C(O)c1c(CCCOc2cccc3ccccc23)c2cccc3c2n1CCO3` [Compound 21, 6-(3-(Naphthalen-1-yloxy)propyl)-2,3-dihydro-[1,4]oxazino[2,3,4-hi]indole-5-carboxylic acid] it was “more than 2 orders of magnitude”. Consider `O=C(O)c1c(CCCOc2ccc3c(c2)CCCC3)c2cccc3c2n1CCS3` [Compound 28, 6-(3-((5,6,7,8-Tetrahydronaphthalen-2-yl)oxy)propyl)-2,3-dihydro-[1,4]thiazino[2,3,4-hi]indole-5-carboxylic acid], for which the “reduction in affinity to Mcl-1” value on human Mcl-1 (compared to regioisomer 26 and 1-naphthyl analog 19) is listed as 3 fold. With `Cc1cc(OCCCc2c(C(=O)O)n3c4c(cccc24)SCC3)ccc1Cl` [Compound 29, 6-(3-(4-Chloro-3-methylphenoxy)propyl)-2,3-dihydro-[1,4]thiazino[2,3,4-hi]indole-5-carboxylic acid], the “improvement in Mcl-1 affinity compared to the core fragment 3” value at human Mcl-1 is given as 240 fold. The same measure, in the same setting: in the case of `Cc1cc(OCCCc2c(C(=O)O)n3c4c(cccc24)SCC3)cc(C)c1Cl` [Compound 30, 6-(3-(4-chloro-3,5-dimethylphenoxy)propyl)-2,3-dihydro-[1,4]thiazino[2,3,4-hi]indole-5-carboxylic acid] it was 720 fold. Take `Cc1cc(OCCCc2c(C(=O)O)n3c4c(c(Cl)ccc24)CCC3)cc(C)c1Cl` [Compound 34, 7-chloro-1-(3-(4-chloro-3,5-dimethylphenoxy)propyl)-5,6-dihydro-4H-pyrrolo[3,2,1-ij]quinoline-2-carboxylic acid]: the “inhibition of biotin-MS-1 pulldown of cellular Mcl-1” value at cellular Mcl-1 is listed as “blocks the interaction with biotin MS-1 in a dose-dependent manner; also recorded: inhibits binding of biotin-MS-1 to Mcl-1 in cell lysates”.
